Data: patent US11498903B2 (BRISTOL-MYERS SQUIBB COMPANY, priority 2017, dated 2022)
Where two headings read alike, the source gives them in different places.

Molecular target: T1, human APJ receptor (Homo sapiens, UniProt P35414)
T1 construct: expressed in transfected cells
T1 sequence (P35414 1-380): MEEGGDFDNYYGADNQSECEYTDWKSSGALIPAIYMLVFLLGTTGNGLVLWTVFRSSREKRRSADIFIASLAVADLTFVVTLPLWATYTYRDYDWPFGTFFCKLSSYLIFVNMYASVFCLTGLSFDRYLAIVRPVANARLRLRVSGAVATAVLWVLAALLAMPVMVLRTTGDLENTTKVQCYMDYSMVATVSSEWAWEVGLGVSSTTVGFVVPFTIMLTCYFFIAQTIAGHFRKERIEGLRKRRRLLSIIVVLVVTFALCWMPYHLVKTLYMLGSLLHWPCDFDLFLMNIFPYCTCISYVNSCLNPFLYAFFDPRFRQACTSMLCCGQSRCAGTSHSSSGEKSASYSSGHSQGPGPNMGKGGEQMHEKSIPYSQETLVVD
Assay: Intracellular cAMP accumulation assay (APJ hcAMP, HTRF)
Format: cell-based
In short: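 Inhibition of 2 μM forskolin-driven cAMP ([…] present) measured by HTRF in 5,000 HEK293 cells/well stably expressing human APJ, 30 min, room temperature. EC50 came from a variable-slope sigmoidal fit; Ymax was relative to (Pyr1)apelin-13 set at 100%.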

[1] = Table 1, HEK293 cells stably expressing human APJ receptor, inhibition of forskolin-mediated cAMP production, read-out: APJ hcAMP EC50
[2] = human APJ, cAMP, potency range class, read-out: APJ cAMP Human EC50
[3] = Table 2, HEK293 cells stably expressing human APJ receptor, read-out: APJ cAMP Human EC50

Compound	EC50 [1] [nM]	EC50 [2] [nM]	EC50 (Table 3, HEK293 cells stably expressing human APJ receptor, read-out: APJ cAMP Human EC50) [nM]	EC50 [3] [nM]
CCC[C@H](NC(=O)c1ccc(-c2c(Cl)cccc2-c2nc3ccccc3[nH]2)c(C(=O)O)c1)c1ccccc1OC (single isomer, unassigned) [Example 221]	< 10	< 10		
O=C(NC(C1CCCCC1)C1CC1)c1ccc(-c2c(Cl)cccc2-c2nc3ccccc3[nH]2)c(C(=O)O)c1 (single isomer, unassigned) [Example 227]	< 10	< 10		
CCCC(NC(=O)c1ccc(-c2c(Cl)cccc2-c2nc3ccccc3[nH]2)c(C(=O)O)c1)c1ccc(F)cc1 (single isomer, unassigned) [Example 228]	< 10	< 10		
CCC[C@@H](NC(=O)c1ccc(-c2c(Cl)cccc2-c2nc3cc(OC)ccc3[nH]2)c(C(=O)O)c1)C1CCCCC1 (single isomer, unassigned) [Example 231]	< 10	< 10		
CCC[C@H](NC(=O)c1ccc(-c2c(Cl)cccc2-c2nc3cc(OC)c(F)cc3[nH]2)c(C(=O)O)c1)c1ccc(F)cc1 (single isomer, unassigned) [Example 233]	< 10	< 10		
COc1cc2nc(-c3cccc(Cl)c3-c3ccc(C(=O)NC(C4CCCCC4)C4CC4)cc3C(=O)O)[nH]c2cc1F (single isomer, unassigned) [Example 235]	< 10	< 10		
CCC[C@H](NC(=O)c1ccc(-c2c(Cl)cccc2-c2nc3cc(OC)c(F)cc3[nH]2)c(C(=O)O)c1)c1ccc(Cl)cc1 (single isomer, unassigned) [Example 236]	< 10	< 10		
COc1cc2nc(-c3cccc(Cl)c3-c3ccc(C(=O)N[C@H](c4ccc(Cl)cc4)C4CC4)cc3C(=O)O)[nH]c2cc1F (single isomer, unassigned) [Example 237]	< 10	< 10		
CCC[C@H](NC(=O)c1ccc(-c2c(Cl)cccc2-c2nc3cc(OC)c(F)cc3[nH]2)c(C(=O)O)c1)c1ccccc1OC (single isomer, unassigned) [Example 238]	< 10	< 10		
CCC[C@H](NC(=O)c1ccc(-c2c(Cl)cccc2-c2nc3cc(F)c(Cl)cc3[nH]2)c(C(=O)O)c1)c1ccc(Cl)cc1 (single isomer, unassigned) [Example 239]	< 10	< 10		
O=C(N[C@H](c1ccc(Cl)cc1)C1CC1)c1ccc(-c2c(Cl)cccc2-c2nc3cc(F)c(Cl)cc3[nH]2)c(C(=O)O)c1 (single isomer, unassigned) [Example 240]	< 10	< 10		
CCC[C@H](NC(=O)c1ccc(-c2c(Cl)cccc2-c2nc3cc(OC)c(F)cc3[nH]2)c(CO)c1)c1ccccc1 (stereo in doubt) [Example 131, (S)-2′-chloro-6′-(6-fluoro-5-methoxy-1H-1,3-benzodiazol-2-yl)-2-(hydroxymethyl)-N-(1-phenylbutyl)-[1,1′-biphenyl]-4-carboxamide]			10 to 100	
CCC[C@@H](NC(=O)c1ccc(-c2cc(Cl)ccc2-c2nc3cc(OC)ccc3[nH]2)c(-c2nc(=O)o[nH]2)c1)c1ccccc1 [Example 8, (R)-5′-chloro-2′-(5-methoxy-1H-benzo[d]imidazol-2-yl)-2-(5-oxo-2,5-dihydro-1,2,4-oxadiazol-3-yl)-N-(1-phenylbutyl)-[1,1′-biphenyl]-4-carboxamide]	10 to 100			10 to 100
CCC[C@@H](NC(=O)c1ccc(-c2cc(Cl)ccc2-c2nc3cc(OC)ccc3[nH]2)c(-c2nc(=S)o[nH]2)c1)c1ccccc1 [Example 10, (R)-5′-chloro-2′-(5-methoxy-1H-benzo[d]imidazol-2-yl)-N-(1-phenylbutyl)-2-(5-thioxo-2,5-dihydro-1,2,4-oxadiazol-3-yl)-[1,1′-biphenyl]-4-carboxamide]	101 to 500			101 to 500

The remaining lines, values ahead:

EC50 [1] [nM]	EC50 [2] [nM]	EC50 (Table 3, HEK293 cells stably expressing human APJ receptor, read-out: APJ cAMP Human EC50) [nM]	EC50 [3] [nM]	Compound
< 10	< 10			O=C(NC(c1ccccc1)C1CC1)c1ccc(-c2cc(Cl)ccc2-c2nc3ccccc3[nH]2)c(C(=O)O)c1 (single isomer, unassigned) [Example 211, 2′-(1H-1,3-benzodiazol-2-yl)-5′-chloro-4-{[cyclopropyl(phenyl)methyl]carbamoyl}-[1,1′-biphenyl]-2-carboxylic acid]
101 to 500	101 to 500			CCCC(NC(=O)c1ccc(-c2cc(Cl)ccc2-c2nc3ccccc3[nH]2)c(C(=O)O)c1)c1ccc(F)cc1 (single isomer, unassigned) [Example 215, 2′-(1H-1,3-benzodiazol-2-yl)-5′-chloro-4-{[1-(4-fluorophenyl)butyl]carbamoyl}-[1,1′-biphenyl]-2-carboxylic acid]
< 10	< 10			O=C(NC(c1ccccc1)C1CC1)c1ccc(-c2c(Cl)cccc2-c2nc3ccccc3[nH]2)c(C(=O)O)c1 (single isomer, unassigned) [Example 220]
< 10	< 10			O=C(NC(c1ccc(Cl)cc1)C1CC1)c1ccc(-c2c(Cl)cccc2-c2nc3ccccc3[nH]2)c(C(=O)O)c1 (single isomer, unassigned) [Example 224]
10 to 100	10 to 100			O=C(N[C@H](c1ccccc1)C1CC1)c1ccc(-c2c(Cl)cccc2-c2nc3ccccc3[nH]2)c(C(=O)O)c1 (single isomer, unassigned) [Example 229]
< 10	< 10			COc1cc2nc(-c3cccc(Cl)c3-c3ccc(C(=O)N[C@H](c4ccccc4)C4CC4)cc3C(=O)O)[nH]c2cc1F (single isomer, unassigned) [Example 234]
< 10			< 10	CCC[C@@H](NC(=O)c1ccc(-c2cc(Cl)ccc2-c2nc3cc(OC)ccc3[nH]2)c(C(=O)O)c1)c1ccccc1 [Example 1, (R)-5′-Chloro-2′-(5-methoxy-1H-benzo[d]imidazol-2-yl)-4-((1-phenylbutyl)carbamoyl)-[1,1′-biphenyl]-2-carboxylic acid]
< 10			< 10	CCC[C@@H](NC(=O)c1ccc(-c2cc(Cl)ccc2-c2nc3ccccc3[nH]2)c(C(=O)O)c1)c1ccccc1 [Example 2, (R)-2′-(1H-Benzo[d]imidazol-2-yl)-5′-chloro-4-((1-phenylbutyl)carbamoyl)-[1,1′-biphenyl]-2-carboxylic acid]
< 10			< 10	CCC[C@@H](NC(=O)c1ccc(-c2cc(Cl)ccc2-c2nc3cc(O)ccc3[nH]2)c(C(=O)O)c1)c1ccccc1 [Example 3, (R)-5′-Chloro-2′-(5-hydroxy-1H-benzo[d]imidazol-2-yl)-4-((1-phenylbutyl)carbamoyl)-[1,1′-biphenyl]-2-carboxylic acid]
< 10			< 10	CCC[C@@H](NC(=O)c1ccc(-c2cc(Cl)ccc2-c2ncc(-c3ccccc3)[nH]2)c(C(=O)O)c1)c1ccccc1 [Example 4, (R)-5′-Chloro-2′-(4-phenyl-1H-imidazol-2-yl)-4-((1-phenylbutyl)carbamoyl)-[1,1′-biphenyl]-2-carboxylic acid]
10 to 100			10 to 100	O=C(N[C@H](CN1CCOCC1)c1ccccc1)c1ccc(-c2cc(Cl)ccc2-c2nc3ccccc3[nH]2)c(C(=O)O)c1 [Example 5, (S)-2′-(1H-benzo[d]imidazol-2-yl)-5′-chloro-4-((2-morpholino-1-phenylethyl)carbamoyl)-[1,1′-biphenyl]-2-carboxylic acid]
101 to 500			101 to 500	CCC[C@@H](NC(=O)c1ccc(-c2cc(Cl)ccc2-c2nc3ccccc3[nH]2)c(C(=O)NC#N)c1)c1ccccc1 [Example 6, (R)-2′-(1H-benzo[d]imidazol-2-yl)-5′-chloro-N2-cyano-N4-(1-phenylbutyl)-[1,1′-biphenyl]-2,4-dicarboxamide]
10 to 100			10 to 100	CCC[C@@H](NC(=O)c1ccc(-c2cc(Cl)ccc2-c2nc3ccccc3[nH]2)c(CO)c1)c1ccccc1 [Example 7, (R)-2′-(1H-benzo[d]imidazol-2-yl)-5′-chloro-2-(hydroxymethyl)-N-(1-phenylbutyl)-[1,1′-biphenyl]-4-carboxamide]
10 to 100			10 to 100	CCC[C@@H](NC(=O)c1ccc(-c2cc(Cl)ccc2-c2nc3ccccc3[nH]2)c(-c2n[nH]c(=O)o2)c1)c1ccccc1 [Example 9]
< 10			< 10	CCC[C@@H](NC(=O)c1cc(C(=O)O)c(-c2cc(Cl)ccc2-c2nc3ccccc3[nH]2)cc1C)c1ccccc1 [Example 11, (R)-2′-(1H-benzo[d]imidazol-2-yl)-5′-chloro-5-methyl-4-((1-phenylbutyl)carbamoyl)-[1,1′-biphenyl]-2-carboxylic acid]
< 10			< 10	COC[C@@H](NC(=O)c1ccc(-c2cc(Cl)ccc2-c2nc3cc(OC)ccc3[nH]2)c(C(=O)O)c1)c1ccccc1 [Example 12, 5′-chloro-4-{[(1S)-2-methoxy-1-phenylethyl]carbamoyl}-2′-(5-methoxy-1H-1,3-benzodiazol-2-yl)-[1,1′ biphenyl]-2-carboxylic acid]
< 10			< 10	CCC[C@@H](NC(=O)c1ccc(-c2cc(Cl)ccc2-c2nc3cc(Br)ccc3[nH]2)c(C(=O)O)c1)c1ccccc1 [Example 13, 2′-(5-bromo-1H-1,3-benzodiazol-2-yl)-5′-chloro-4-{[(1R)-1-phenylbutyl]carbamoyl}-[1,1′-biphenyl]-2-carboxylic acid]
